Test results from ChEMBL document CHEMBL1201862, “PubChem BioAssay data set” (2004).
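1) Cells in 96-well plates. 2) Compound, 48 h, 5 concentrations. 3) Linear interpolation between surrounding doses. 4) Unreached endpoint = highest concentration. At the GI50, growth is halved.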 Active and inactive are the calls of the source. Cut-off read from the data, not from the text of the source: active = GI50 up to about 1.1 µM and inactive = higher.

Columns and labels:
Test in all cases: NCI-60 cell line screen, 48 h
[1] = test system: SK-MEL-28
[2] = test system: SN12C
[3] = test system: OVCAR-8
[4] = test system: KM12
[5] = test system: UACC-62
[6] = test system: SK-MEL-5
[7] = test system: MOLT-4
[8] = test system: A549
[9] = test system: SF-268
[10] = test system: IGROV-1
[11] = test system: SK-MEL-2
[12] = test system: NCI-H23
[13] = test system: UO-31
[14] = test system: NCI-H460
[15] = test system: OVCAR-4
[16] = test system: HCT-116
[17] = test system: Malme-3M
[18] = test system: RXF 393
[19] = test system: HT-29
[20] = test system: UACC-257

Measured: GI50

Cc1ccc([N+](=O)[O-])cc1S(=O)(=O)Nc1ccc(C2=NNC(c3ccccc3O)C2)cc1 (centres undefined)
inactive: [1] 26.9 µM | [2] 23.9 µM | [3] 56 µM | [4] 21.6 µM | [5] 17.6 µM | [6] 19.2 µM | [7] 24.1 µM | [8] 24.9 µM | [9] 32.1 µM | [10] 40.7 µM | [11] 25.2 µM | [12] 20.6 µM | [13] 17.9 µM | [14] 25.7 µM | [15] 19.8 µM | [16] 21.9 µM | [17] 25.9 µM | [18] 15.2 µM | [19] 28.8 µM | [20] 25.9 µM

CCCCCn1cc2c3c(cccc31)C1C=C(C)CN(C)[C@@H]1C2.Cc1ccc(C(=O)OC(C(=O)O)C(OC(=O)c2ccc(C)cc2)C(=O)O)cc1 (centres undefined)
inactive: [1] 6.93 µM | [2] 13 µM | [3] 12.3 µM | [4] 5.92 µM | [5] 5.25 µM | [6] 3.06 µM | [7] 4.24 µM | [8] 9.33 µM | [9] 11 µM | [10] 8.22 µM | [11] 9.18 µM | [12] 3.37 µM | [13] 3.86 µM | [14] 3.89 µM | [15] 5.96 µM | [16] 4.04 µM | [17] 2.56 µM | [18] 5.78 µM | [19] 3.4 µM | [20] 4.21 µM

O=C1OC2(CC1C1(O)C3CC4CC(C3)CC1C4)C1CC3CC(C1)CC2C3 (centres undefined)
inactive: [1] > 100 µM | [2] 65.3 µM | [3] 35.1 µM | [4] > 100 µM | [5] > 100 µM | [6] 38.3 µM | [7] > 100 µM | [8] 56.4 µM | [9] > 100 µM | [10] 77.6 µM | [11] > 100 µM | [12] > 100 µM | [13] > 100 µM | [14] 32.1 µM | [15] 22.1 µM | [16] 49.7 µM | [17] 58.3 µM | [18] > 100 µM | [19] > 100 µM | [20] > 100 µM

COC(Cc1cc(C(O)(c2ccc(C(C)(C)C)cc2)c2cc(CC(OC)(c3cc(C(OC)(c4ccc(C(C)(C)C)cc4)c4ccc(C(C)(C)C)cc4)c(C)cc3C)c3cc(C(OC)(c4ccc(C(C)(C)C)cc4)c4ccc(C(C)(C)C)cc4)c(C)cc3C)c(C)cc2C)c(C)cc1C)(c1cc(C(OC)(c2ccc(C(C)(C)C)cc2)c2ccc(C(C)(C)C)cc2)c(C)cc1C)c1cc(C(OC)(c2ccc(C(C)(C)C)cc2)c2ccc(C(C)(C)C)cc2)c(C)cc1C
inactive: [1] > 75 µM | [2] > 75 µM | [3] > 75 µM | [5] > 75 µM | [6] > 75 µM | [7] > 75 µM | [8] > 75 µM | [9] > 75 µM | [10] > 75 µM | [11] > 75 µM | [12] > 75 µM | [13] > 75 µM | [14] > 75 µM | [15] > 75 µM | [16] > 75 µM | [17] > 75 µM | [18] > 75 µM | [19] > 75 µM | [20] > 75 µM

Cc1cc(C)c(S(=O)(=O)N(CCCCCN)OCCCN)c(C)c1
inactive: [1] 16.9 µM | [2] 18.1 µM | [3] 18.8 µM | [4] 19 µM | [5] 17.7 µM | [6] 16.3 µM | [7] 14.4 µM | [8] 19 µM | [9] 20.3 µM | [10] 13.9 µM | [11] 17.9 µM | [12] 18.3 µM | [13] 14.1 µM | [14] 16.8 µM | [15] 21.5 µM | [16] 17.9 µM | [17] 23.4 µM | [18] 10.3 µM | [19] 14.1 µM | [20] 17.1 µM

N#C/C(=C\c1ccncc1)c1csc2ccccc12
inactive: [1] 34.1 µM | [2] 23.6 µM | [3] 28.5 µM | [4] 18.5 µM | [5] 22.1 µM | [6] 16.8 µM | [7] 15.5 µM | [8] 23.4 µM | [9] 22.9 µM | [10] 28 µM | [11] 17.2 µM | [12] 25.2 µM | [13] 24.9 µM | [14] 24.9 µM | [15] 26.2 µM | [16] 16.6 µM | [17] 32.7 µM | [18] 27.7 µM | [19] 18.6 µM | [20] 23.7 µM
